The experiment has as its system U251-MG cells. As to the kind of experiment: Half-maximal cell-inhibitory concentration on U251-MG cells (CCK-8). The format is cell-based. Particulars: Homo sapiens, U-251, U251-MG cells (DHX33-overexpressing cancer cell strain), 48 hours, read-out: IC50 (half-maximal inhibitory concentrations of compounds on U251-MG cells). How it is done: U251-MG cells were purchased from the cell bank of the Chinese Academy of Sciences. Cells were cultured in MEM medium containing 10% fetal bovine serum (FBS), 2 mM L-glutammie, streptomycmn and penicillin. The growth conditions were set as follows: a humidified cell incubator (37° C., 5% CO2). Cells were passaged every 3 days and were discarded after 10 passages.
U251-MG cells (a […]-overexpressing cancer cell strain) were seeded on a 96-well plate at 1×10^4 cells/100 μl/well. After the cells were completely attached, the compounds were added to the cell culture medium at a concentration of 5 nM, 10 nM, 25 nM, 50 nM, 100 nM, […], 500 nM, 1000 nM, 2000 nM, […] or 20 μM, and the resulting mixture was uniformly mixed with a multichannel pipette. After the cells were incubated with the compound for 48 hours, CCK-8 reagent (Yeasen Biotechnology (Shanghai) Co., Ltd.) was added to the medium in the 96-well plate in accordance with the standard procedure. After being incubated for 2 hours, the plate was read with a microplate reader (OD=450 nm). The experiment was repeated three times, the inhibition curve of the compound at different concentrations was plotted, and the half-maximal inhibitory concentration (IC50) of the compound was calculated.

Among the data in patent publication US20230146233A1, “A CLASS OF POLYCYCLIC COMPOUNDS INHIBITING RNA HELICASE DHX33 AND THE APPLICATION THEREOF” (Shenzhen KeYe Life Technologies, Co., Ltd, priority 2020, published 2023) are IC50 values, retold here.

SMILES strings stand for the structures. Where only a bound is given, the exact number is not on record here.

Turning to `COc1cc2nc(/C(C#N)=C/c3cc(C)n(-c4sc(C)c(C)c4C#N)c3C)[nH]c2cn1` [AB24308, (E)-2-(3-(2-cyano-2-(6-methoxy-3H-imidazo[4,5-c]pyridin-2-yl)vinyl)-2,5-dimethyl-1H-pyrrol-1-yl)-4,5-dimethylthiophene-3-carbonitrile], the IC50 was less than 100 nM.

Turning to `COc1nccc2nc(/C(C#N)=C/c3cc(C)n(-c4sc(C)c(C)c4C#N)c3C)[nH]c12` [AB24309], the IC50 was in the range of 1000 to 5000 nM.

As to `COc1ccnc2nc(/C(C#N)=C/c3cc(C)n(-c4sc(C)c(C)c4C#N)c3C)[nH]c12` [AB24310, (E)-2-(3-(2-cyano-2-(7-methoxy-1H-imidazo[4,5-b]pyridin-2-yl)vinyl)-2,5-dimethyl-1H-pyrrol-1-yl)-4,5-dimethylthiophene-3-carbonitrile], the IC50 is 5000 to 20000 nM.

For `COC(=O)c1cc(C)sc1-n1c(C)cc(/C=C(\C#N)c2nc3cc(OC)ncc3[nH]2)c1C` [AB24311, methyl (E)-2-(3-(2-cyano-2-(6-methoxy-3H-imidazo[4,5-c]pyridin-2-yl)vinyl)-2,5-dimethyl-1H-pyrrol-1-yl)-5-methylthiophene-3-carboxylate], the IC50 is less than 100 nM.

Regarding `COc1cc2nc(/C(C#N)=C/c3cc(C)n(-c4sc(C)cc4C(N)=O)c3C)[nH]c2cn1` [AB24313, (E)-2-(3-(2-cyano-2-(6-methoxy-3H-imidazo[4,5-c]pyridin-2-yl)vinyl)-2,5-dimethyl-1H-pyrrol-1-yl)-5-methylthiophene-3-carboxamide], the IC50 lay within 100 to 1000 nM.

For `COC(=O)c1c(-n2c(C)cc(/C=C(\C#N)c3nc4cc(OC)ncc4[nH]3)c2C)sc(C)c1C` [AB24316], the IC50 lay within 100 to 1000 nM.

As for `CCc1cc(C#N)c(-n2c(C)cc(/C=C(\C#N)c3nc4cc(OC)ncc4[nH]3)c2C)s1` [AB24317, (E)-2-(3-(2-cyano-2-(6-methoxy-3H-imidazo[4,5-c]pyridin-2-yl)vinyl)-2,5-dimethyl-1H-pyrrol-1-yl)-5-ethylthiophene-3-carbonitrile], the IC50 was less than 100 nM.

With `COc1cc2nc(/C(C#N)=C/c3cc(C)n(-c4sc(C)nc4C)c3C)[nH]c2cn1` [AB24319], the IC50 lay in the range of 100 to 1000 nM.

For the molecule `CCOC(=O)c1cc(C#N)c(-n2c(C)cc(/C=C(\C#N)c3nc4cc(OC)ncc4[nH]3)c2C)s1` [AB24320], the IC50 fell in the range of 1000 to 5000 nM.

As for `COc1cc2nc(/C(C#N)=C/c3cc(C)n(-c4sc(Br)cc4C#N)c3C)[nH]c2cn1` [AB24323, (E)-5-bromo-2-(3-(2-cyano-2-(6-methoxy-3H-imidazo[4,5-c]pyridin-2-yl)vinyl)-2,5-dimethyl-1H-pyrrol-1-yl)thiophene-3-carbonitrile], the IC50 is less than 100 nM.

For the molecule `COc1cc2nc(/C(C#N)=C/c3cc(C)n(-c4sc(C5CC5)cc4C#N)c3C)[nH]c2cn1` [AB24324, (E)-2-(3-(2-cyano-2-(6-methoxy-3H-imidazo[4,5-c]pyridin-2-yl)vinyl)-2,5-dimethyl-1H-pyrrol-1-yl)-5-cyclopropylthiophene-3-carbonitrile], the IC50 is less than 100 nM.

With `COc1cc2nc(/C(C#N)=C/c3cc(C)n(-c4sc(C(C)C)cc4C#N)c3C)[nH]c2cn1` [AB24325, (E)-2-(3-(2-cyano-2-(6-methoxy-3H-imidazo[4,5-c]pyridin-2-yl)vinyl)-2,5-dimethyl-1H-pyrrol-1-yl)-5-isopropylthiophene-3-carbonitrile], the IC50 was in the range of 100 to 1000 nM.

Turning to `COc1cc2nc(/C(C#N)=C/c3cc(C)n(-c4sc(C(C)(C)C)cc4C#N)c3C)[nH]c2cn1` [AB24326], the IC50 fell in the range of 100 to 1000 nM.

In the case of `COc1cc2nc(/C(C#N)=C/c3cc(C)n(-c4sc(Cc5ccccc5)cc4C#N)c3C)[nH]c2cn1` [AB24328, (E)-5-benzyl-2-(3-(2-cyano-2-(6-methoxy-3H-imidazo[4,5-c]pyridin-2-yl)vinyl)-2,5-dimethyl-1H-pyrrol-1-yl)thiophene-3-carbonitrile], the IC50 was in the range of 100 to 1000 nM.

For `COc1cnc2[nH]c(/C(C#N)=C/c3cc(C)n(-c4sc(C)cc4C#N)c3C)nc2c1` [AB24333, (E)-2-(3-(2-cyano-2-(6-methoxy-3H-imidazo[4,5-b]pyridin-2-yl)vinyl)-2,5-dimethyl-1H-pyrrol-1-yl)-5-methylthiophene-3-carbonitrile], the IC50 was less than 100 nM.

With `COc1cc2nc(/C(C#N)=C/c3cnn(-c4sc(C)cc4C#N)c3C)[nH]c2cn1` [AB24334, (E)-2-(4-(2-cyano-2-(6-methoxy-3H-imidazo[4,5-c]pyridin-2-yl)vinyl)-5-methyl-1H-pyrazol-1-yl)-5-methylthiophene-3-carbonitrile], the IC50 was 100 to 1000 nM.

Regarding `COc1cc2nc(/C(C#N)=C/c3cc(C)n(-c4sc(-c5cccnc5)cc4C#N)c3C)[nH]c2cn1` [AB24337], the IC50 was in the range of 1000 to 5000 nM.

With `COc1cc2nc(/C(C#N)=C/c3cc(C)n(-c4sc(-c5ccncc5)cc4C#N)c3C)[nH]c2cn1` [AB24338], the IC50 was in the range of 1000 to 5000 nM.

For the molecule `Cc1cc(C#N)c(-n2c(C)cc(/C=C(\C#N)c3nc4cc(Cl)ncc4[nH]3)c2C)s1` [AB24341, (E)-2-(3-(2-(6-chloro-3H-imidazo[4,5-c]pyridin-2-yl)-2-cyanovinyl)-2,5-dimethyl-1H-pyrrol-1-yl)-5-methylthiophene-3-carbonitrile], the IC50 was less than 100 nM.

For `COc1cc2cc(/C(C#N)=C/c3cc(C)n(-c4sc(C)cc4C#N)c3C)[nH]c2cn1` [AB24342, (Z)-2-(3-(2-cyano-2-(5-methoxy-1H-pyrrolo[2,3-c]pyridin-2-yl)vinyl)-2,5-dimethyl-1H-pyrrol-1-yl)-5-methylthiophene-3-carbonitrile], the IC50 lay in the range of 100 to 1000 nM.

With `COC(=O)c1nc(C)sc1-n1c(C)cc(/C=C(\C#N)c2nc3cc(OC)ncc3[nH]2)c1C` [AB24345], the IC50 is 100 to 1000 nM.

Turning to `COc1cc2nc(/C(C#N)=C(\C)c3cc(C)n(-c4sc(C)cc4C#N)c3C)[nH]c2cn1` [AB24347, (E)-2-(3-(1-cyano-1-(6-methoxy-3H-imidazo[4,5-c]pyridin-2-yl)prop-1-en-2-yl)-2,5-dimethyl-1H-pyrrol-1-yl)-5-methylthiophene-3-carbonitrile], the IC50 fell in the range of 100 to 1000 nM.

For `COc1cc2nc(/C(C#N)=C/c3cc(C)n(-c4sc(C)nc4C#N)c3C)[nH]c2cn1` [AB24348, (E)-5-(3-(2-cyano-2-(6-methoxy-3H-imidazo[4,5-c]pyridin-2-yl)vinyl)-2,5-dimethyl-1H-pyrrol-1-yl)-2-methylthiazole-4-carbonitrile], the IC50 is less than 100 nM.

Consider `COc1cc2nc(/C(C#N)=C/c3cc(C)n(-c4sc(Cl)cc4C#N)c3C)[nH]c2cn1` [AB24349], for which the IC50 was less than 100 nM.

With `COc1cc2nc(/C(C#N)=C/c3cc(C)n(-c4sc(C)cc4C#N)c3C)n(C)c2cn1` [AB24352, (E)-2-(3-(2-cyano-2-(6-methoxy-3-methyl-3H-imidazo[4,5-c]pyridin-2-yl)vinyl)-2,5-dimethyl-1H-pyrrol-1-yl)-5-methylthiophene-3-carbonitrile], the IC50 was in the range of 100 to 1000 nM.

On to `Cc1cc(C#N)c(-n2c(C)cc(/C=C(\C#N)c3nc4cc(N(C)C)ncc4[nH]3)c2C)s1` [AB24355, (E)-2-(3-(2-cyano-2-(6-(dimethylamino)-3H-imidazo[4,5-c]pyridin-2-yl)vinyl)-2,5-dimethyl-1H-pyrrol-1-yl)-5-methylthiophene-3-carbonitrile], for which the IC50 was less than 100 nM.

For the molecule `COc1ccc2c(c1)[nH]c1cc(-c3cc(C)n(-c4sc(C)cc4C#N)c3C)c(C)cc12` [AB24374, 2-(3-(7-methoxy-3-methyl-9H-carbazol-2-yl)-2,5-dimethyl-1H-pyrrol-1-yl)-5-methylthiophene-3-carbonitrile], the IC50 lay in the range of 5000 to 20000 nM.

Turning to `COc1ccc2[nH]c3cc(-c4cc(C)n(-c5sc(C)cc5C#N)c4C)ccc3c2c1` [AB24375, 2-(3-(6-methoxy-9H-carbazol-2-yl)-2,5-dimethyl-1H-pyrrol-1-yl)-5-methylthiophene-3-carbonitrile], the IC50 was 5000 to 20000 nM.

Take `COc1ccc2nc3cc(-c4cc(C)n(-c5sc(C)cc5C#N)c4C)ccc3n2c1` [AB24385, 2-(3-(2-methoxybenzo[4,5]imidazo[1,2-a]pyridin-7-yl)-2,5-dimethyl-1H-pyrrol-1-yl)-5-methylthiophene-3-carbonitrile]: the IC50 lay within 1000 to 5000 nM.

For `COc1cc2nc(/C(C#N)=C/c3cc(C)n(Cc4ccco4)c3C)[nH]c2cn1` [AB24397, (E)-3-(1-(furan-2-ylmethyl)-2,5-dimethyl-1H-pyrrol-3-yl)-2-(6-methoxy-3H-imidazo[4,5-c]pyridin-2-yl)acrylonitrile], the IC50 was less than 100 nM.

Regarding `COc1cc2nc(/C(C#N)=C/c3cc(C)n(Cc4ccccc4)c3C)[nH]c2cn1` [AB24398, (E)-3-(1-benzyl-2,5-dimethyl-1H-pyrrol-3-yl)-2-(6-methoxy-3H-imidazo[4,5-c]pyridin-2-yl)acrylonitrile], the IC50 was less than 100 nM.

As to `COc1cc2nc(NC(=O)c3cc(C)n(-c4sc(C)nc4C#N)c3C)[nH]c2cn1` [AB29502, 1-(4-cyano-2-methylthiazol-5-yl)-N-(6-methoxy-3H-imidazo[4,5-c]pyridin-2-yl)-2,5-dimethyl-1H-pyrrole-3-carboxamide], the IC50 was 100 to 1000 nM.

Turning to `COc1ccc2nc(NC(=O)c3cc(C)n(-c4sc(C)nc4C)c3C)[nH]c2c1` [AB29505, 1-(2,4-dimethylthiazol-5-yl)-N-(6-methoxy-1H-benzo[d]imidazol-2-yl)-2,5-dimethyl-1H-pyrrole-3-carboxamide], the IC50 is 100 to 1000 nM.
